Experimental data as given in article PMC11633415, “Investigation of the inhibitory properties of azo-dyes on chorismate synthase from Paracoccidioides brasiliensis” (Journal of Enzyme Inhibition and Medicinal Chemistry, 2024).
Read-outs that look alike come from different tables or passages of the source.

How the values were obtained:
[1] = target: CS from Neurospora crassa; design: method as in earlier work; conditions: competitive inhibitor of CS from Neurospora crassa ref 9; cited from earlier work
CS = tested on: CS; design: method as in PMID 7559411; conditions: very slow substrate of CS ref 10; cited from earlier work
[2] = tested on: CS from Streptococcus pneumoniae (SpCS); design: method as in PMID 12565943; conditions: SpCS ref 12; cited from earlier work
PbCS [3] = target: T1, PbCS (Paracoccidioides brasiliensis, UniProt C1GBW5); design: method as in PMID 30348661
PbCS [4] = target: T1, PbCS; design: method as in PMID 30348661; conditions: PbCS ref 13, cited from earlier work
CS from N. crassa = CS from N. crassa ref 30; cited from earlier work
[5] = target: chorismate synthase from Paracoccidioides brasiliensis (PbCS) (Paracoccidioides brasiliensis, UniProt C1GBW5); assay: Spectrophotometric titration / binding assay, PbCS
Protocol: (§1) For the binding studies, PH011669 was dissolved in 50 mM NaH2PO4 and 150 mM NaCl at pH 8, diluted to a final concentration of approximately 10 µM (A580nm ∼0.25; 800 µL), and transferred to a quartz cuvette (with 800 µL of buffer in the reference cuvette). After recording an initial UV-visible absorption spectrum between 300 and 800 nm, 10 µL aliquots of PbCS (∼55 µM) were added, and spectral changes were monitored after each addition. To quantify the binding affinity of PH011669 to PbCS, we plotted the relative absorption changes at 510 nm as a function of the protein concentration in the cuvette[17].

chorismate synthase (CS) [6] = target: T2, chorismate synthase (CS) (Trichormus variabilis, UniProt Q3MFM3); assay: Spectrophotometric titration, CS from Anabaena variabilis; format: binding; conditions: CS from Anabaena variabilis (cyanobacterium)
T2 construct: made in house; host or cells: E. coli

chorismate synthase (CS) [7] = target: T3, chorismate synthase (CS) (Aquifex aeolicus, UniProt O66493); assay: Spectrophotometric titration, CS from Aquifex aeolicus; format: binding
T3 construct: made in house; host or cells: E. coli

chorismate synthase (CS) [8] = target: chorismate synthase (CS) (Botrytis cinerea, UniProt A0A384JF70); assay: Spectrophotometric titration, CS from Botrytis fuckeliana; format: binding; conditions: CS from Botrytis fuckeliana (fungus)
chorismate synthase (CS) [9] = target: chorismate synthase (CS) (Candida albicans, UniProt A0A1D8PTK1); assay: Spectrophotometric titration, CS from Candida albicans; format: binding; conditions: CS from Candida albicans (fungus)
chorismate synthase (CS) [10] = target: T4, chorismate synthase (CS) (Capnoides sempervirens, UniProt P27793); assay: Spectrophotometric titration, CS from Corydalis sempervirens; format: binding; conditions: CS from Corydalis sempervirens (plant)
T4 construct: made in house; host or cells: E. coli

chorismate synthase (CS) [11] = target: T5, chorismate synthase (CS) (Escherichia coli, UniProt P12008); assay: Spectrophotometric titration, CS from Escherichia coli; format: binding
T5 construct: made in house; host or cells: E. coli

chorismate synthase (CS) [12] = target: chorismate synthase (CS) (Methanothermobacter thermautotrophicus, UniProt O26843); assay: Spectrophotometric titration, CS from Methanobacterium thermoautotrophicum; format: binding
chorismate synthase (CS) [13] = target: T6, chorismate synthase (CS) (Neurospora crassa, UniProt Q12640); assay: Spectrophotometric titration, CS from Neurospora crassa; format: binding; conditions: CS from Neurospora crassa (fungus)
T6 construct: made in house; host or cells: E. coli
Protocol: as §1

chorismate synthase (CS) [14] = target: T7, chorismate synthase (CS) (Saccharomyces cerevisiae, UniProt P28777); assay: Spectrophotometric titration, CS from Saccharomyces cerevisiae; format: binding; conditions: CS from Saccharomyces cerevisiae (yeast)
T7 construct: made in house; host or cells: E. coli

chorismate synthase (CS) [15] = assay: Spectrophotometric titration, CS from Solanum lycopersicum; format: binding; conditions: CS from Solanum lycopersicum (plant)
chorismate synthase (CS) [16] = target: chorismate synthase (CS) (Staphylococcus aureus, UniProt Q2FYG9); assay: Spectrophotometric titration, CS from Staphylococcus aureus; format: binding
chorismate synthase (CS) [17] = target: chorismate synthase (CS) (Tetrahymena thermophila, UniProt Q23FV7); assay: Spectrophotometric titration, CS from Tetrahymena thermophila; format: binding
chorismate synthase (CS) [18] = target: T8, chorismate synthase (CS) (Thermotoga maritima, UniProt Q9WYI2); assay: Spectrophotometric titration, CS from Thermotoga marítima; format: binding
T8 construct: made in house; host or cells: E. coli

chorismate synthase (CS) [19] = target: chorismate synthase (CS) (Toxoplasma gondii, UniProt O02607); assay: Spectrophotometric titration, CS from Toxoplasmodium gondii; format: binding; conditions: CS from Toxoplasmodium gondii (protozoon)
PbCS [20] = target: T1, PbCS; assay: Isothermal titration calorimetry (ITC); conditions: single site binding model, 25 °C, pH 8, triplicates, read-out: dissociation constant by ITC
Protocol: Isothermal titration calorimetry (ITC) was performed on a MicroCal PEAQ-ITC. All ITC experiments were conducted in storage buffer (50 mM NaH2PO4, 150 mM NaCl, pH 8) at 25 °C and a stirring rate of 750 rpm. Titration experiments consisted of 13 injections (first injection: 0.4 µL; duration time: 0.8 s; spacing time: 300 s; 2nd–13th injection: 3 µL; duration time: 6 s; spacing time: 150 s) and were performed in triplicates. The azo-dye PH011669 (500 µM) was loaded into the injection syringe and titrated into the sample cell containing PbCS (25 µM); the reference cell was filled with degassed ddH2O. Dissociation constants were obtained with the MicroCal PEAQ-ITC Analysis Software (Malvern) using the “one set of sites fitting” model.

PbCS [21] = target: T1, PbCS; assay: Inhibition assay, CS reaction coupled with anthranilate synthase reaction; format: biochemical; conditions: 80 μM EPSP, 4 μM PbCS, 37 °C, Hill fit
Protocol: The influence of PH011669 on the activity of PbCS was tested by forward coupling the CS reaction with the anthranilate synthase reaction. The final reaction solution contained 80 μM EPSP, 4 μM PbCS, 7 µM YcnD, 20 μM anthranilate synthase, 4 mM MgSO4, 10 mM L-glutamine (L-Gln), 30 mM (NH4)2SO4, 1 mM dithiothreitol (DTT) and different concentrations of the inhibitor (0.1–250 µM). The assay was prepared in 10 mM potassium phosphate at pH 7.6 and pipetted into a 96-well plate. The reaction was started by the addition of 500 µM NADPH. PbCS activity could be studied spectrofluorometrically at 37 °C by following the increase in the fluorescence intensity at 390 nm (λex = 340 nm) for 5 min, which correlates with the amount of anthranilate formed in the course of the reaction. The slopes of the initial velocities were determined and plotted as a function of the log of the corresponding PH011669 concentration (triplicates were determined).
To test the inhibitory effect of PH011669 on the activity of CS, we used a coupled assay involving EPSP, CS, YcnD and anthranilate synthase. Our inhibition assay has been used to determine the ability of a drug to reduce the activity of the enzyme. The resulting IC50 value gives the concentration of a drug required for 50% inhibition of the enzymatic activity. […]

T1 sequence (C1GBW5 entry or part of it): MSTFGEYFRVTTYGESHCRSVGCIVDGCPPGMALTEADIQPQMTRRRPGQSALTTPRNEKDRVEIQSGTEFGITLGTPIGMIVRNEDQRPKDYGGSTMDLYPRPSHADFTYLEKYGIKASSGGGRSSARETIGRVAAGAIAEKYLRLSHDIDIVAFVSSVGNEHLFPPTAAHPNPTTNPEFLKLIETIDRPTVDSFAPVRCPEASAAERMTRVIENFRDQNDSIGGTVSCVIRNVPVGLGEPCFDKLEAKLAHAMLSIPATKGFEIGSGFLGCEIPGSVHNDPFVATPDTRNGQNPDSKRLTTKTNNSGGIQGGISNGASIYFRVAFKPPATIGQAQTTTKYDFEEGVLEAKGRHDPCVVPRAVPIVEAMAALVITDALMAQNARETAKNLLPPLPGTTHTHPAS
Sequence of chorismate synthase from Paracoccidioides brasiliensis (PbCS) (C1GBW5 entry or part of it): as above
Sequence of chorismate synthase (CS) (Staphylococcus aureus, UniProt Q2FYG9) (Q2FYG9 whole entry): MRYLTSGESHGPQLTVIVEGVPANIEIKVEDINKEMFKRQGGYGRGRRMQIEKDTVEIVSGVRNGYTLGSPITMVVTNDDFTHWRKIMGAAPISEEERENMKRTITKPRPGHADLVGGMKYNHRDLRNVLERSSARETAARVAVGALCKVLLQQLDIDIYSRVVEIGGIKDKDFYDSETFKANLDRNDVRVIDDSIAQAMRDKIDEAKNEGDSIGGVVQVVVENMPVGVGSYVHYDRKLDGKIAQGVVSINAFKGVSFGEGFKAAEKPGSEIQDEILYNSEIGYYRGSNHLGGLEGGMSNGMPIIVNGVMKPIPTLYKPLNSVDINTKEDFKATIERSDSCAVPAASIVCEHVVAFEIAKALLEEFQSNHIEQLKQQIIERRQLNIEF
T2 sequence (Q3MFM3 whole entry): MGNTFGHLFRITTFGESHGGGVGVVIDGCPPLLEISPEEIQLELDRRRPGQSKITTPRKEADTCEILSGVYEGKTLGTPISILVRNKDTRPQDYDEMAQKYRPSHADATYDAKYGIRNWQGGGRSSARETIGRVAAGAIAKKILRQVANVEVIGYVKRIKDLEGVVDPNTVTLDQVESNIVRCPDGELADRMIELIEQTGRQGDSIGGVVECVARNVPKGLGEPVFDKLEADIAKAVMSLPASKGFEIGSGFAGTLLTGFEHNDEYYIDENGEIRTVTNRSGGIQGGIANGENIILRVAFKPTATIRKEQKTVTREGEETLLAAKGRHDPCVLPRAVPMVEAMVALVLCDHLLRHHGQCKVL
T3 sequence (O66493 whole entry): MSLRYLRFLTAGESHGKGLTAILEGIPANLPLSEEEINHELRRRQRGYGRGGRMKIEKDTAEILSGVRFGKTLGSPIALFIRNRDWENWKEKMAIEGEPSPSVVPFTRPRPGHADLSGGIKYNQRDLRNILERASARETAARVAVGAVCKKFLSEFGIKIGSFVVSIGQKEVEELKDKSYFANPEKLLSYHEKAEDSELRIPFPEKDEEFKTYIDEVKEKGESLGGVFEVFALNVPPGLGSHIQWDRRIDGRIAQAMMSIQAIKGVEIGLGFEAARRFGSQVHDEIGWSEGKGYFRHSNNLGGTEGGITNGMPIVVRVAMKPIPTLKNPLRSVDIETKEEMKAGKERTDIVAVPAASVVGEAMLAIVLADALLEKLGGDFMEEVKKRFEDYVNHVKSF
Sequence of chorismate synthase (CS) (Tetrahymena thermophila, UniProt Q23FV7) (Q23FV7 entry or part of it): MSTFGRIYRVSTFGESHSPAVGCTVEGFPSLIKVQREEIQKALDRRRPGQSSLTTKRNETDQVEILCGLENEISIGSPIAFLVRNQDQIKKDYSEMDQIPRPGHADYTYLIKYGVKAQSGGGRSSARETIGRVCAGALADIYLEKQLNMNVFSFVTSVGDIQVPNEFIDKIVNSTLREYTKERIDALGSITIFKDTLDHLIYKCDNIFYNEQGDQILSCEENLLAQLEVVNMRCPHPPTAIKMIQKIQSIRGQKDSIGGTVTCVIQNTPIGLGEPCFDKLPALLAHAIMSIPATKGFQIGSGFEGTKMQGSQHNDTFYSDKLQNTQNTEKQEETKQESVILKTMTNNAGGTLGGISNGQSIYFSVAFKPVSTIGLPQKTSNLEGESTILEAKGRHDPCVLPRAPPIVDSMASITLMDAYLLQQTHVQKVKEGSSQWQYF
Sequence of chorismate synthase (CS) (Candida albicans, UniProt A0A1D8PTK1) (A0A1D8PTK1 entry or part of it): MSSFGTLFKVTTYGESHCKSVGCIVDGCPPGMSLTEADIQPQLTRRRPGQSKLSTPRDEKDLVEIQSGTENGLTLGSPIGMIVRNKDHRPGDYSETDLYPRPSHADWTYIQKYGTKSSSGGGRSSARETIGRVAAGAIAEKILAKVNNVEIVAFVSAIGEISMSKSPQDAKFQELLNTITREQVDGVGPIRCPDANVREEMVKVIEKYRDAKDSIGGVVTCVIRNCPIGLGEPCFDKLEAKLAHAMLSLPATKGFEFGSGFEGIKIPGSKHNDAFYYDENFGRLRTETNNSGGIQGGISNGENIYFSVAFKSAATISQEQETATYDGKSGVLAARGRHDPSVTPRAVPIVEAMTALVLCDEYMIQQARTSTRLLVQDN
Sequence of chorismate synthase (CS) (Toxoplasma gondii, UniProt O02607) (O02607 whole entry): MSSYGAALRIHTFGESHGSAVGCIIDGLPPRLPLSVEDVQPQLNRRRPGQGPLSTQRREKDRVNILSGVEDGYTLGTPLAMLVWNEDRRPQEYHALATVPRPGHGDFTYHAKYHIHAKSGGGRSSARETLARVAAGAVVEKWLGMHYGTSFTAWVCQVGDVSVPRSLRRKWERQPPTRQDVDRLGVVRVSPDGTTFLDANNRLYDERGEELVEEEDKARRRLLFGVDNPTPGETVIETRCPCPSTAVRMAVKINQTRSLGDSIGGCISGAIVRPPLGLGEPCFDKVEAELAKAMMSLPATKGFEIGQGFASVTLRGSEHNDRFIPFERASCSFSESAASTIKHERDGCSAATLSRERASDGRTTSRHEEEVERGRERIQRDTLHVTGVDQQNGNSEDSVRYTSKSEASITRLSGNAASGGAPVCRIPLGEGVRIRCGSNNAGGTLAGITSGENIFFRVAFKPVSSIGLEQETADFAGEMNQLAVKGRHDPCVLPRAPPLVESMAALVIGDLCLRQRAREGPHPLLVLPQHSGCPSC
T6 sequence (Q12640 whole entry): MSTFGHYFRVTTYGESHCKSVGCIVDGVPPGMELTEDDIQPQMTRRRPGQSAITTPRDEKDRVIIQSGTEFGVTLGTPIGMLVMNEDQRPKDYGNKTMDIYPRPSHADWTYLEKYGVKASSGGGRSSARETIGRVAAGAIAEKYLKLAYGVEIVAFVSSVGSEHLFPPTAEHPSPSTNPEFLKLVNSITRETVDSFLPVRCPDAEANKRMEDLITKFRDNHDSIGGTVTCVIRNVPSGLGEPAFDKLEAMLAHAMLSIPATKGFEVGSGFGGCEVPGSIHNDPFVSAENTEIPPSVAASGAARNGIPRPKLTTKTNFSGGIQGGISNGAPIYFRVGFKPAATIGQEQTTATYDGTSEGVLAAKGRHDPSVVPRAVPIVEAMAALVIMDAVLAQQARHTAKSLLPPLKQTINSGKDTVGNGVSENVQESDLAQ
Sequence of chorismate synthase (CS) (Botrytis cinerea, UniProt A0A384JF70) (A0A384JF70 entry or part of it): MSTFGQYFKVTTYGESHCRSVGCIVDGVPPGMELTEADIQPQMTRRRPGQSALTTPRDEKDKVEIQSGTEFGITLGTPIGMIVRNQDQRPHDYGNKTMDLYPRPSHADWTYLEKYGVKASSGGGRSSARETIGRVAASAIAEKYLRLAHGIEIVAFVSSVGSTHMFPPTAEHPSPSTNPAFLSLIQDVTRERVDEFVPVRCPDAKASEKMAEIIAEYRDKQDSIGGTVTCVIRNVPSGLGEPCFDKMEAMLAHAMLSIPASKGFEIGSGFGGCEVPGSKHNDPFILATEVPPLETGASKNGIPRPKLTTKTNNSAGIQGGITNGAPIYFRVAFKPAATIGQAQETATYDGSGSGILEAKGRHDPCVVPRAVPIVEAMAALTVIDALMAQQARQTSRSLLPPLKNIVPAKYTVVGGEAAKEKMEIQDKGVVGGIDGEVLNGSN
T4 sequence (P27793 58-447): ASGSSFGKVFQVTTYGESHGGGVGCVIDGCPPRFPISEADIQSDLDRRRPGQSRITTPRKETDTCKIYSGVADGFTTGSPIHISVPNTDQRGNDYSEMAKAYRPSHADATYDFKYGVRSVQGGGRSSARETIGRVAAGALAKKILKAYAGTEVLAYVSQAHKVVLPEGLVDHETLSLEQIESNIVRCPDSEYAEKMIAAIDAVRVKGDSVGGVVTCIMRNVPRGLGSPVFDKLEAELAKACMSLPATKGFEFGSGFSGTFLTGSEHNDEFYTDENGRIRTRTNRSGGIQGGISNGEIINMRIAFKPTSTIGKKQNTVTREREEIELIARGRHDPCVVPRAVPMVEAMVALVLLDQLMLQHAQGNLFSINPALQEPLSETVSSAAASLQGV
T5 sequence (P12008 whole entry): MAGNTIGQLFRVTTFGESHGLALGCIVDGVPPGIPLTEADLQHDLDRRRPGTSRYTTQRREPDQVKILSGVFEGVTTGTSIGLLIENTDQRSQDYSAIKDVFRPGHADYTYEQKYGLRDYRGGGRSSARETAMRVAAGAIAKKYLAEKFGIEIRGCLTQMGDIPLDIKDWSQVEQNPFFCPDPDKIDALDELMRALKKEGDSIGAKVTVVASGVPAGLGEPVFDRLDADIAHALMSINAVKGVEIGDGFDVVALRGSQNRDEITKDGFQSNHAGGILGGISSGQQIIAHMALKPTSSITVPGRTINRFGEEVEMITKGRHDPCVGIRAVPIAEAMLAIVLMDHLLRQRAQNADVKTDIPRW

C=C(OC1C(O)C(OP(=O)(O)O)C=C(C(=O)O)[C@H]1F)C(=O)O (stereo partly drawn) [6(R)-6-fluoro-EPSP, (6R)-6-fluoro-5-enolpyruvylshikimate 3-phosphate]
Ki [1]: 3 ± 0.3 µM

C=C(OC1C(O)C(OP(=O)(O)O)C=C(C(=O)O)[C@@H]1F)C(=O)O (stereo partly drawn) [6(S)-6-fluoro-EPSP, (6S)-6-fluoro-5-enolpyruvylshikimate-3-phosphate]
slower turnover than EPSP (CS): 200 fold

CCN(CC)c1ccc(/C=C2\Oc3c(ccc(O)c3O)C2=O)cc1 [BF1]
IC50 [2]: 8 µM

CCCCCOc1ccc(/C=C2\Oc3c(ccc(O)c3O)C2=O)c(O)c1 [BF2]
IC50 [2]: 0.22 µM

O=C(O)[C@H]1Nc2c(cccc2[N+](=O)[O-])[C@@H]2[C@H](Cl)[C@@H](Sc3ccccc3[N+](=O)[O-])C[C@@H]21 [CP1, (1S,2S,3aS,4S,9bR)-1-chloro-6-nitro-2-(2-nitrophenyl)sulfanyl-2,3,3a,4,5,9b-hexahydro-1H-cyclopenta[c]quinoline-4-carboxylic acid]
Kd (PbCS [3]; read-out: dissociation constant; PbCS ref 13; cited from earlier work): 64 ± 1 µM | IC50 (PbCS [4]): 47 µM

O=[N+]([O-])c1ccc(/N=N/c2c(S(=O)(=O)O)cc3cc(S(=O)(=O)O)ccc3c2O)c([N+](=O)[O-])c1 [CaCS02, 2-(2,4-dinitrophenylazo)-1-hydroxynaphthalene-3,6-disulfonic acid (nitrazine yellow)]
Kd (PbCS [3]; PbCS ref 13; read-out: dissociation constant; cited from earlier work): 20 µM | IC50 (PbCS [4]; read-out: IC50): 29 µM

C=C(OC1CC(C(=O)O)=CC(OP(=O)(O)O)C1O)C(=O)O (stereo not drawn) [EPSP, 5-enolpyruvylshikimate-3-phosphate]
Kd (CS from N. crassa): 17 µM

Nc1cc(S(=O)(=O)O)cc2cc(S(=O)(=O)O)c(/N=N/c3cc([N+](=O)[O-])cc(Cl)c3O)c(O)c12 [PH011669, 5-amino-3-[(E)-(3-chloro-2-hydroxy-5-nitrophenyl)diazenyl]-4-hydroxy-2,7-naphthalenedisulfonic acid]
higher affinity than the initial hit ([5]; affinity to PbCS relative to initial hit (CaCS02)): ca. 20 fold | Kd ([5]; read-out: Kd (dissociation constant), spectrophotometric titration, PbCS): 1.1 µM | Kd (chorismate synthase (CS) [6]): 1.8 ± 0.1 µM | Kd (chorismate synthase (CS) [7]): 3.2 ± 0.1 µM | Kd (chorismate synthase (CS) [8]): 4 ± 0.6 µM | Kd (chorismate synthase (CS) [9]): 4.6 ± 0.7 µM | Kd (chorismate synthase (CS) [10]): 1 ± 0.1 µM | Kd (chorismate synthase (CS) [11]): 3.7 ± 1 µM | Kd (chorismate synthase (CS) [12]): 2.7 µM | Kd (chorismate synthase (CS) [13]): 3.5 ± 0.1 µM | Kd (chorismate synthase (CS) [14]): 2.4 ± 0.1 µM | Kd (chorismate synthase (CS) [15]): 1.8 ± 0.1 µM | Kd (chorismate synthase (CS) [16]): 3.7 ± 0.1 µM | Kd (chorismate synthase (CS) [17]): 4.4 ± 0.1 µM | Kd (chorismate synthase (CS) [18]): 1.5 µM | Kd (chorismate synthase (CS) [19]): 1.7 µM | Kd (PbCS [20]): 3.8 ± 1.8 µM | IC50 (PbCS [21]): 10 ± 1 µM
